This is an account of results in patent publication US9403835B2, “Tetraaza-cyclopenta[a]indenyl and their use as positive allosteric modulators” (Merck Patent GmbH, priority 2011, dated 2016).

Test system in the first data set: not given
Test: not given
Conditions: not given
As a reminder, the melting point is the temperature, or range, at which the solid turns liquid. Turning to `Cc1nc2c3c(nn2c(C)c1Cl)CN(C(=O)c1ccccc1CN1CCC(O)C1)C3` (centres unmarked) [Example 72, (6-chloro-5,7-dimethyl-1H,3H-2,4,7a,8-tetraaza-cyclopenta[a]inden-2-yl)-[2-(3-hydroxy-pyrrolidin-1-ylmethyl)-phenyl]-methanone], the melting point lay within 210 to 217 °C.

`Cc1nc2c3c(nn2c(C)c1Cl)CN(C(=O)c1ccccc1CN1CCC(O)(C(F)(F)F)CC1)C3` [Example 90, (6-chloro-5,7-dimethyl-1H,3H-2,4,7a,8-tetraaza-cyclopenta[a]inden-2-yl)-[2-(4-hydroxy-4-trifluoromethyl-piperidin-1-ylmethyl)-phenyl]-methanone] gave a melting point of 223 to 227 °C.

For the compound `Cc1nc2c3c(nn2c(C)c1Cl)CN(C(=O)c1ccccc1CN1C[C@H]2CN(C)C[C@H]2C1)C3` [Example 94, (6-chloro-5,7-dimethyl-1H,3H-2,4,7a,8-tetraaza-cyclopenta[a]inden-2-yl)-[2-((3aR,6aS)-5-methyl-hexahydro-pyrrolo[3,4-c]pyrrol-2-ylmethyl)-phenyl]-methanone], the melting point is 174 to 177 °C.

`Cc1nc2c3c(nn2c(C)c1Cl)CN(C(=O)c1ccccc1CN1CCCN(C)CC1)C3` [Example 95, (6-Chloro-5,7-dimethyl-1H,3H-2,4,7a,8-tetraaza-cyclopenta[a]inden-2-yl)-[2-(4-methyl-[1,4]diazepan-1-ylmethyl)-phenyl]-methanone]: the melting point is 138 to 141 °C.

Compound `Cc1nc2c3c(nn2c(C)c1Cl)CN(C(=O)c1ccccc1CN1CCN2CCCC2C1)C3` (centres unmarked) [Example 97, (6-chloro-5,7-dimethyl-1H,3H-2,4,7a,8-tetraaza-cyclopenta[a]inden-2-yl)-[2-(hexahydro-pyrrolo[1,2-a]pyrazin-2-ylmethyl)-phenyl]-methanone] yielded a melting point of 180 to 182 °C.

`O=C(c1ccccc1OC(F)(F)C(F)F)N1Cc2nn3cc(Cl)cnc3c2C1` [Example 106, (6-chloro-1H,3H-2,4,7a,8-tetraaza-cyclopenta[a]inden-2-yl)-[2-(1,1,2,2-tetrafluoro-ethoxy)-phenyl]-methanone] yielded a melting point of 194 to 196 °C.

For `Cc1nc2c3c(nn2c(C)c1Cl)CN(C(=O)c1ccccc1CN1CCNC(C)C1)C3` (centres unmarked) [Example 116, (6-chloro-5,7-dimethyl-1H,3H-2,4,7a,8-tetraaza-cyclopenta[a]inden-2-yl)-[2-(3-methyl-piperazin-1-ylmethyl)-phenyl]-methanone], the melting point lay within 195 to 200 °C.

Compound `Cc1nc2c3c(nn2c(C)c1Cl)CN(C(=O)c1ccccc1CN1CCNCC1=O)C3` [Example 117, 1-[2-(6-chloro-5,7-dimethyl-1H,3H-2,4,7a,8-tetraaza-cyclopenta[a]indene-2-carbonyl)-benzyl]-piperazin-2-one] came in with a melting point of 176 to 183 °C.

The compound `Cc1nc2c3c(nn2c(C)c1Cl)CN(C(=O)c1ccccc1CN1CCCNCC1)C3` [Example 118, (6-chloro-5,7-dimethyl-1H,3H-2,4,7a,8-tetraaza-cyclopenta[a]inden-2-yl)-(2-[1,4]diazepan-1-ylmethyl-phenyl)-methanone] had a melting point of 185 to 192 °C.

In turn, `Cc1nc2c3c(nn2c(C)c1Cl)CN(C(=O)c1ccccc1CN1CCCC(N)C1)C3` (centres unmarked) [Example 125, [2-(3-amino-piperidin-1-ylmethyl)-phenyl]-(6-chloro-5,7-dimethyl-1H,3H-2,4,7a,8-tetraaza-cyclopenta[a]inden-2-yl)-methanone] registered a melting point of 165 to 170 °C.

The target of a further data set is T1, muscarinic M1 receptor (Homo sapiens, UniProt P11229).
T1 construct: expressed in transfected cells; host or cells: CHO (M1-CHO cells)
T1 sequence (P11229 1-460): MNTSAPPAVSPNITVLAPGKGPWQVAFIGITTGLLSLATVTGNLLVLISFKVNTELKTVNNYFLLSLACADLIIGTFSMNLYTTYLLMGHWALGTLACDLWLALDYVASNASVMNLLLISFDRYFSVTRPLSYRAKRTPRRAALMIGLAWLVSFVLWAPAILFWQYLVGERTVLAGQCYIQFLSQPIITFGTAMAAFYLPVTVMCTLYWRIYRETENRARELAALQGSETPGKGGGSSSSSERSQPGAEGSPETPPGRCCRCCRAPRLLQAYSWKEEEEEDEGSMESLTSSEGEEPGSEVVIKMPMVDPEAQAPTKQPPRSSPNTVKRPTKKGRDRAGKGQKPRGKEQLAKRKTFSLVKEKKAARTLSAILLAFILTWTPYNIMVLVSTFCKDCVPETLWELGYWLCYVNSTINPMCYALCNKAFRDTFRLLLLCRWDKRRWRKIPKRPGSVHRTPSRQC
Description: M1 PAM Assay (IP-One HTRF, IP1 in M1-CHO cells with EC20 of acetylcholine). In kind it is cell-based. The note with it: 1 hour at room temperature, IP1 readout. The procedure: M1-CHO cells are plated in culture medium (HAM's F12, P/S, 10% FCS) on the day before the experiment with 10 000 cells/well in a 384 well plate (3750 Corning White 384 w plate with lid). On the day of experiment, cells are washed with PBS and IPone buffer is added (glucose 5.5 mM, NaCl 146 mM, MgCl2 0.5 mM, HEPES 10 mM, LiCl 50 mM, CaCl2 1 mM, KCl 4.2 mM). Then diluted compounds (1% DMSO final concentration) are added together with EC20 of acetylcholine and incubated with the cells for 1 hour at room temperature. The intracellular concentration of IP1 is then measured using the IP-One HTRF assay from Cisbio.
One may read the EC50 as the concentration giving half of the maximal effect. The compound `Cc1nc2c3c(nn2c(C)c1Cl)CN(C(=O)c1ccccc1OC1CCOCC1)C3` [Example 35, (6-chloro-5,7-dimethyl-1H,3H-2,4,7a,8-tetraaza-cyclopenta[a]inden-2-yl)-[2-(tetrahydro-pyran-4-yloxy)-phenyl]-methanone] showed an EC50 of 1000 to 2000 nM.

Take `Cc1nc2c3c(nn2c(C)c1C)CN(C(=O)c1ccccc1N1CCN(C)CC1)C3` [Example 36, [2-(4-methyl-piperazin-1-yl)-phenyl]-(5,6,7-trimethyl-1H,3H-2,4,7a,8-tetraaza-cyclopenta[a]inden-2-yl)-methanone]: the EC50 is 1000 to 2000 nM.

In the case of `CCNc1ccccc1C(=O)N1Cc2nn3c(C)c(C)c(C)nc3c2C1` [Example 37, (2-ethylamino-phenyl)-(5,6,7-trimethyl-1H,3H-2,4,7a,8-tetraaza-cyclopenta[a]inden-2-yl)-methanone], the EC50 was 1000 to 2000 nM.

In the case of `Cc1cnc2c3c(nn2c1C)CN(C(=O)c1ccccc1OCCN(C)C)C3` [Example 38, [2-(2-dimethylamino-ethoxy)-phenyl]-(6,7-dimethyl-1H,3H-2,4,7a,8-tetraaza-cyclopenta[a]inden-2-yl)-methanone], the EC50 fell in the range of 1000 to 2000 nM.

In the case of `Cc1nc2c3c(nn2c(C)c1C)CN(C(=O)c1ccccc1-n1cccn1)C3` [Example 39, (2-pyrazol-1-yl-phenyl)-(5,6,7-trimethyl-1H,3H-2,4,7a,8-tetraaza-cyclopenta[a]inden-2-yl)-methanone], the EC50 was in the range of 1000 to 2000 nM.

Compound `Cc1nc2c3c(nn2c(C)c1C)CN(C(=O)c1ccccc1OCCC1CCCCC1)C3` [Example 40, [2-(2-cyclohexyl-ethoxy)-phenyl]-(5,6,7-trimethyl-1H,3H-2,4,7a,8-tetraaza-cyclopenta[a]inden-2-yl)-methanone] came in with an EC50 of 1000 to 2000 nM.

Regarding `Cc1cnc2c3c(nn2c1C)CN(C(=O)c1ccccc1N1CCCN(C)CC1)C3` [Example 41, (6,7-dimethyl-1H,3H-2,4,7a,8-tetraaza-cyclopenta[a]inden-2-yl)-[2-(4-methyl-[1,4]diazepan-1-yl)-phenyl]-methanone], the EC50 fell in the range of 1000 to 2000 nM.

In turn, `Cc1nc2c3c(nn2c(C)c1C)CN(C(=O)c1ccccc1C(F)(F)F)C3` [Example 43, (2-trifluoromethyl-phenyl)-(5,6,7-trimethyl-1H,3H-2,4,7a,8-tetraaza-cyclopenta[a]inden-2-yl)-methanone] displayed an EC50 of 1000 to 2000 nM.

For the compound `COC(=O)c1ccccc1C(=O)N1Cc2nn3c(C)c(C)c(C)nc3c2C1` [Example 44, 2-(5,6,7-trimethyl-1H,3H-2,4,7a,8-tetraaza-cyclopenta[a]indene-2-carbonyl)-benzoic acid methyl ester], the EC50 is 1000 to 2000 nM.

Compound `CCOc1ccccc1C(=O)N1Cc2nn3cc(Cl)cnc3c2C1` [Example 46, (6-chloro-1H,3H-2,4,7a,8-tetraaza-cyclopenta[a]inden-2-yl)-(2-ethoxy-phenyl)-methanone] showed an EC50 of 1000 to 2000 nM.

Consider `Cc1cnc2c3c(nn2c1)CN(C(=O)c1ccccc1OCCN(C)C)C3` [Example 47, [2-(2-dimethylamino-ethoxy)-phenyl]-(6-methyl-1H,3H-2,4,7a,8-tetraaza-cyclopenta[a]inden-2-yl)-methanone], for which the EC50 lay within 1000 to 2000 nM.

In the case of `CCOc1ccccc1C(=O)N1Cc2nn3cc(Br)cnc3c2C1` [Example 48, (6-bromo-1H,3H-2,4,7a,8-tetraaza-cyclopenta[a]inden-2-yl)-(2-ethoxy-phenyl)-methanone], the EC50 is 1000 to 2000 nM.

Take `Cc1nc2c3c(nn2c(C)c1C)CN(C(=O)c1ccccc1Br)C3` [Example 49, (2-bromo-phenyl)-(5,6,7-trimethyl-1H,3H-2,4,7a,8-tetraaza-cyclopenta[a]inden-2-yl)-methanone]: the EC50 was in the range of 1000 to 2000 nM.
